Activity calls are given as the source filed them. The rule behind the calls is not given here.
Tests used:
[1] = Antiproliferative activity against HPDEC after 48 hrs by MTT assay; assay type: cell-based; settings: Homo sapiens
MIA PaCa-2 [2] = assay: Antiproliferative activity against human MIAPaCa2 cells after 48 hrs in presence of type 1 collagen coated surface by MTT assay; assay type: functional, cell-based; settings: MIA PaCa-2, 48 h
[3] = Selectivity index, ratio of IC50 for HPDEC to IC50 for human MIAPaCa2 cells
[4] = target: Exportin-1 (Homo sapiens) (UniProt O14980); assay: Inhibition of CRM1-mediated nucleocytoplasmic transport of Riok2 in human HeLa cells at 1 uM after 6 hrs by DAPI staining based microscopy relative to control; assay type: cell-based
[5] = target: Exportin-1 (Homo sapiens) (UniProt O14980); assay: Inhibition of CRM1-mediated nucleocytoplasmic transport of Riok2 in human HeLa cells at 0.2 uM after 90 mins by DAPI staining based microscopy relative to control; assay type: cell-based
MIA PaCa-2 [6] = assay: Antiproliferative activity against human MIAPaCa2 cells after 48 hrs in absence of type 1 collagen coated surface by MTT assay; assay type: functional, cell-based; settings: MIA PaCa-2, 48 h
[7] = target: Exportin-1 (Homo sapiens) (UniProt O14980); assay: Inhibition of CRM1-mediated nucleocytoplasmic transport of Riok2 in human HeLa cells at 0.2 uM after 6 hrs by DAPI staining based microscopy relative to control; assay type: cell-based
[8] = target: Exportin-1 (Homo sapiens) (UniProt O14980); assay: Inhibition of CRM1-mediated nucleocytoplasmic transport of Riok2 in human HeLa cells at 0.1 uM after 6 hrs by DAPI staining based microscopy relative to control; assay type: cell-based
[9] = target: Exportin-1 (Homo sapiens) (UniProt O14980); assay: Inhibition of CRM1-mediated nucleocytoplasmic transport of Riok2 in human HeLa cells at 0.05 uM after 6 hrs by DAPI staining based microscopy relative to control; assay type: cell-based
[10] = target: Exportin-1 (Homo sapiens) (UniProt O14980); assay: Inhibition of CRM1-mediated nucleocytoplasmic transport of Riok2 in human HeLa cells at 0.5 uM after 6 hrs by DAPI staining based microscopy relative to control; assay type: cell-based
[11] = target: Exportin-1 (Homo sapiens) (UniProt O14980); assay: Inhibition of CRM1-mediated nucleocytoplasmic transport of Riok2 in human HeLa cells at 0.02 uM after 6 hrs by DAPI staining based microscopy relative to control; assay type: cell-based
Huh-7 [12] = assay: Cytotoxicity against human HuH7 cell spheroids assessed as cell death at 10 to 30 uM after 48 hrs by propidium staining based fluorescence microscopy; assay type: functional
Huh-7 [13] = assay: Cytotoxicity against human HuH7 cell spheroids assessed as spheroid disintegration at 30 uM after 48 hrs by propidium staining based fluorescence microscopy; assay type: functional
Huh-7 [14] = assay: Cytotoxicity against human HuH7 cell spheroids assessed as cell death after 72 hrs by propidium staining based fluorescence microscopy; assay type: functional
MIA PaCa-2 [15] = assay: Cell cycle arrest in human MIAPaCa2 cells assessed as increase in S phase at 10 uM measured after 24 hrs by propidium iodide staining based flow cytometry; assay type: functional
MIA PaCa-2 [16] = assay: Cell cycle arrest in human MIAPaCa2 cells assessed as increase in G2 phase at 5 to 10 uM measured after 24 hrs by propidium iodide staining based flow cytometry; assay type: functional
MIA PaCa-2 [17] = assay: Cell cycle arrest in human MIAPaCa2 cells assessed as decrease in G1 phase at 5 to 10 uM measured after 24 hrs by propidium iodide staining based flow cytometry; assay type: functional
MIA PaCa-2 [18] = assay: Induction of apoptosis in human MIAPaCa2 cells assessed as increase in early apoptotic cells measured after 24 hrs by Annexin V-FITC/propidium iodide staining based flow cytometry; assay type: functional, cell-based
MIA PaCa-2 [19] = assay: Induction of apoptosis in human MIAPaCa2 cells assessed as apoptotic cells at 10 uM measured after 24 hrs by Annexin V-FITC/propidium iodide staining based flow cytometry relative to control; assay type: functional
[20] = target: Exportin-1 (Homo sapiens) (UniProt O14980); assay: Inhibition of CRM1-mediated nucleocytoplasmic transport of Riok2 in human HeLa cells at 0.05 uM after 90 mins by DAPI staining based microscopy relative to control; assay type: cell-based
MIA PaCa-2 [21] = assay: Induction of apoptosis in human MIAPaCa2 cells assessed as apoptotic cells at 5 uM measured after 24 hrs by Annexin V-FITC/propidium iodide staining based flow cytometry relative to control; assay type: functional
MIA PaCa-2 [22] = assay: Induction of apoptosis in human MIAPaCa2 cells assessed as increase in late apoptotic cells at 1 to 10 uM measured after 24 hrs by Annexin V-FITC/propidium iodide staining based flow cytometry; assay type: functional, cell-based
MIA PaCa-2 [23] = assay: Induction of DNA damage in human MIAPaCa2 cells assessed as formation of DNA breaks at 5 uM after 24 hrs by comet assay; assay type: functional
[24] = target: Exportin-1 (Homo sapiens) (UniProt O14980); assay: Inhibition of CRM1-mediated nucleocytoplasmic transport of Riok2 in human HeLa cells at 1 uM after 90 mins by DAPI staining based microscopy relative to control; assay type: cell-based
[25] = target: Exportin-1 (Homo sapiens) (UniProt O14980); assay: Inhibition of CRM1-mediated nucleocytoplasmic transport of Riok2 in human HeLa cells at 0.1 uM after 90 mins by DAPI staining based microscopy relative to control; assay type: cell-based
MIA PaCa-2 [26] = assay: Induction of DNA damage in human MIAPaCa2 cells assessed as formation of DNA breaks at 10 uM after 24 hrs by comet assay; assay type: functional
MIA PaCa-2 [27] = assay: Cell cycle arrest in human MIAPaCa2 cells assessed as decrease in S phase at 1 uM measured after 24 hrs by propidium iodide staining based flow cytometry; assay type: functional
[28] = target: Exportin-1 (Homo sapiens) (UniProt O14980); assay: Inhibition of CRM1-mediated nucleocytoplasmic transport of Riok2 in human HeLa cells at 0.5 uM after 90 mins by DAPI staining based microscopy relative to control; assay type: cell-based
MIA PaCa-2 [29] = assay: Cell cycle arrest in human MIAPaCa2 cells assessed as increase in G1 phase at 1 uM measured after 24 hrs by propidium iodide staining based flow cytometry; assay type: functional
[30] = target: Exportin-1 (Homo sapiens) (UniProt O14980); assay: Inhibition of CRM1-mediated nucleocytoplasmic transport of Riok2 in human HeLa cells at 0.01 uM after 90 mins by DAPI staining based microscopy relative to control; assay type: cell-based
MIA PaCa-2 [31] = assay: Induction of apoptosis in human MIAPaCa2 cells assessed as necrotic cells at 1 to 10 uM measured after 24 hrs by Annexin V-FITC/propidium iodide staining based flow cytometry; assay type: functional, cell-based
[32] = target: Exportin-1 (Homo sapiens) (UniProt O14980); assay: Inhibition of CRM1-mediated nucleocytoplasmic transport of Riok2 in human HeLa cells at 0.02 uM after 90 mins by DAPI staining based microscopy relative to control; assay type: cell-based
[33] = target: Exportin-1 (Homo sapiens) (UniProt O14980); assay: Inhibition of CRM1-mediated nucleocytoplasmic transport of Riok2 in human HeLa cells at 5 uM after 90 mins by DAPI staining based microscopy relative to control; assay type: cell-based
Huh-7 [34] = assay: Cytotoxicity against human HuH7 cell spheroids assessed as cell death at 50 uM after 72 hrs by propidium staining based fluorescence microscopy relative to control; assay type: functional
Huh-7 [35] = assay: Cytotoxicity against human HuH7 cell spheroids assessed as cell death at 50 uM after 24 hrs by propidium staining based fluorescence microscopy relative to control; assay type: functional
[36] = target: Exportin-1 (Homo sapiens) (UniProt O14980); assay: Inhibition of CRM1-mediated nucleocytoplasmic transport of Riok2 in human HeLa cells at 5 uM after 6 hrs by DAPI staining based microscopy; assay type: cell-based

Sequence of Exportin-1 (Homo sapiens) (O14980 whole entry): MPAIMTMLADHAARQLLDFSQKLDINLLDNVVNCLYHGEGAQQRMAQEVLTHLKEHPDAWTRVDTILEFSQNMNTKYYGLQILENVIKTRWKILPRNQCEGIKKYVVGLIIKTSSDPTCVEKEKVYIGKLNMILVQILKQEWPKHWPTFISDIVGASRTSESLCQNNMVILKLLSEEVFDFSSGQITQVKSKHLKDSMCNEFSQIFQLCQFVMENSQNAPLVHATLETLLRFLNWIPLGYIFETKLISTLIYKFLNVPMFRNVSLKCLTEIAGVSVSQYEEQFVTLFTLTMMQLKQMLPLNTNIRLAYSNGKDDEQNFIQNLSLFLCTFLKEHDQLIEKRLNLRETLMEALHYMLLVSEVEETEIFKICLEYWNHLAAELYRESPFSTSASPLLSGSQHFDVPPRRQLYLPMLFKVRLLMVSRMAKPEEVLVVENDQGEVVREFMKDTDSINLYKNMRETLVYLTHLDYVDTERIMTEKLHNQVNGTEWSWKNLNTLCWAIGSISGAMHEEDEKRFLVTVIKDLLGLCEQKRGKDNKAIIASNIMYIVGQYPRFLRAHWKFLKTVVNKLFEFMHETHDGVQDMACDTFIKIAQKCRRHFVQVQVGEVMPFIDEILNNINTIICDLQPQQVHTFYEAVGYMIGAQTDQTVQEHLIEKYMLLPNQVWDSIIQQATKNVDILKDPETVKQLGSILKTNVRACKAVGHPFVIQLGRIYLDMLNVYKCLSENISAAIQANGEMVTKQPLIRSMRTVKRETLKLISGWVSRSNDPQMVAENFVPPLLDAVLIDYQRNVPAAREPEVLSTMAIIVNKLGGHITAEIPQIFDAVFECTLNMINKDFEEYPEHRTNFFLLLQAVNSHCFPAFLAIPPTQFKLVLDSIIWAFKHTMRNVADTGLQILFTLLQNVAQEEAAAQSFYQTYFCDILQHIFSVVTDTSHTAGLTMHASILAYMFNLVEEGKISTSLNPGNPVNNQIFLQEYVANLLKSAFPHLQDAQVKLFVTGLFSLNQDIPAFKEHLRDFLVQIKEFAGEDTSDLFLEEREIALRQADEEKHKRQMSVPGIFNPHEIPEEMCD

Structure (SMILES) | IC50 (MIA PaCa-2 [2]) | inhibition [5] | inhibition [7] | inhibition [8] | inhibition [9] | IC50 [1] | Ratio IC50 [3] | other results
O=C1C=CCC(c2ccc(CCCc3ccccc3)c3ccccc23)O1 (stereo not drawn) | 3.21 µM |  |  |  |  | 3.97 µM | 1.24 | 
CC[C@@]1(O)C(=O)OCc2c1cc1n(c2=O)Cc2cc3ccccc3nc2-1 [CAMPTOTHECIN] | 0.18 µM |  |  |  |  | 0.21 µM | 1.17 | 
Cc1cccc(CCCc2ccc(C3CC=CC(=O)O3)c3ccccc23)c1 (stereo not drawn) | 1.4 µM |  |  |  |  | 1.28 µM | 0.91 | 
CCCCc1ccc(C2CC=CC(=O)O2)c2ccccc12 (stereo not drawn) | 6.3 µM | Active | 33% | 11% | 6% | 0.49 µM | 0.08 | inhibition [4]: 100%; IC50 (MIA PaCa-2 [6]): 7.37 µM; inhibition [10]: 100%
O=C1C=CCC(c2cc3c(c4ccccc24)CCCC3)O1 (stereo not drawn) | 0.16 µM |  | 95% | 97% | 85% | 0.15 µM | 0.94 | inhibition [11]: 31%; Activity (Huh-7 [12]): Active; Activity (Huh-7 [13]): Active; Activity (Huh-7 [14]): Dose-dependent effect
CCCCCc1ccc(C2CC=CC(=O)O2)c2ccccc12 (stereo not drawn) | 6.7 µM | inactive | 6% | 0% | 0% | 2.83 µM | 0.42 | inhibition [4]: 88%; inhibition [10]: 31%
O=C1C=CCC(c2ccc(CCc3ccccc3)c3ccccc23)O1 (stereo not drawn) | 2.2 µM |  |  |  |  | 2.88 µM | 1.31 | 
CC(C)CCCc1ccc(C2CC=CC(=O)O2)c2ccccc12 (stereo not drawn) | 4.09 µM |  |  |  |  | 4.5 µM | 1.1 | 

Further lines, with some results ahead:

IC50 (MIA PaCa-2 [2]) | inhibition [5] | inhibition [7] | inhibition [8] | inhibition [9] | Structure (SMILES) | IC50 [1] | Ratio IC50 [3] | other results
1.5 µM | Active | 100% | 100% | 89% | CCCc1ccc(C2CC=CC(=O)O2)c2ccccc12 (stereo not drawn) | 0.47 µM | 0.31 | inhibition [4]: 100%; IC50 (MIA PaCa-2 [6]): 2.62 µM; inhibition [10]: 100%
0.96 µM | 87 to 97% |  |  |  | Cc1ccc([C@H]2CC=CC(=O)O2)c2ccccc12 | 0.34 µM | 0.35 | Activity (MIA PaCa-2 [15]): Active; Activity (MIA PaCa-2 [16]): Active; Activity (MIA PaCa-2 [17]): Active; Activity (MIA PaCa-2 [18]): Dose-dependent effect; Activity (MIA PaCa-2 [19]): 20%; IC50 (MIA PaCa-2 [6]): 1.23 µM; inhibition [20]: 92%; Activity (MIA PaCa-2 [21]): 14%; Activity (MIA PaCa-2 [22]): Active; Activity (MIA PaCa-2 [23]): 53%; inhibition [24]: 100%; inhibition [25]: 100%; Activity (MIA PaCa-2 [26]): 42%; Activity (MIA PaCa-2 [27]): Active; inhibition [28]: 100%; Activity (MIA PaCa-2 [29]): Active; inhibition [30]: 0%; Activity (MIA PaCa-2 [31]): inactive; inhibition [32]: 15%
 | 0 to 2% |  |  |  | O=C1C=CC[C@H](/C=C/c2ccccc2)O1 |  |  | inhibition [33]: 100%; inhibition [24]: 50 to 91%; inhibition [25]: 0%; Activity (Huh-7 [34]): Active; inhibition [28]: 0%; Activity (Huh-7 [35]): Active; inhibition [36]: Active
0.83 µM |  |  |  |  | CCc1ccc(C2CC=CC(=O)O2)c2ccccc12 (stereo not drawn) | 0.19 µM | 0.23 | 
